Several values for one entry are separate records, joined by “and”; a condition that tells them apart may be missing. Equal values may be shown once.
Legend:
[1] = test system: participants with narcolepsy; assay: Toronto Hospital Alertness Test (THAT), narcolepsy study; format: in vivo, human; conditions: end of 7-day treatment period
Method: The Toronto Hospital Alertness Test (THAT) is a 10-item self-report questionnaire that measures perceived alertness over the previous week; scores can range from 0 to 50, with higher scores indicating greater alertness (Shapiro et al., 2006). This assessment was administered at the end of each 7-day treatment period to evaluate participants' perceived alertness throughout the treatment period.
Additional secondary efficacy measures (standard deviation of speed, number of lane drifts, and THAT scores) were analyzed using a similar ANOVA method as described for SDLP. No multiplicity adjustments were made in the efficacy analyses for multiple endpoints, and all p values are therefore nominal.

[2] = test system: participants with narcolepsy; design: species or system human; conditions: in vivo
[3] = test system: participants with narcolepsy; conditions: 12 weeks; 75 to 300 mg/day; cited from earlier work
[4] = test system: participants with narcolepsy; assay: Actual task effectiveness from PVT inverse reaction time, narcolepsy; format: in vivo, human; conditions: narcolepsy n=20
Method: (§1) Actual task effectiveness scores were calculated based on each participant's inverse reaction time (IRT [1/RT]) as described below. Sleep intervals derived from participants' actigraphy data—or from sleep diaries, if available, where actigraphy data were missing—were used to calculate modeled healthy control task effectiveness scores using the SAFTE. Participants evidenced good sleep hygiene, with minimal missing data. Task effectiveness was not modeled for participants missing data from the night before PVT testing. A SAFTE model effectiveness score of 100 indicates typical best performance during the day, based on a normal healthy population. SAFTE-FAST effectiveness predictions have been validated against IRT on the PVT [22].
(§2) Actual effectiveness scores were calculated as a percentage of a theoretical “best performance” from participants' average IRT per PVT trial (for all PVT test sessions, actual effectiveness=IRT/3.96×100). Average speed (IRT) on a PVT under optimal conditions—healthy sleepers taking the test at 11:00 in the morning, following an 8-hour sleep opportunity—is approximately 3.96 [40], and is assumed to represent an actual effectiveness score of 100 (a healthy participant's typical best performance). Repeated-measures analysis of variance (ANOVA) was used to estimate the effect of treatment on actual effectiveness over time.

[5] = test system: subjects with EDS due to OSA; design: species or system human; conditions: in vivo
participants with OSA = assay: Actual task effectiveness from PVT inverse reaction time, OSA; format: in vivo, human; conditions: OSA n=31
Method: as §1, §2

[6] = test system: subjects with EDS due to OSA; assay: Safety / adverse events, OSA study; format: in vivo, human
Method: The incidence of treatment-emergent adverse events was summarized by treatment. Descriptive statistics were presented for vital sign results. No formal statistical testing was performed for the safety analyses.
The use of vital signs, clinical laboratory tests, standard AE reporting, and the questionnaires that were selected to assess the safety of the study drug were appropriate since they are routinely used to assess the safety profile of drugs in clinical studies and pertinent to known risks of solriamfetol. The C-SSRS is able to determine clinically meaningful points at which a person may be at risk for an impending suicide attempt (Posner 2011).

[7] = test system: participants with narcolepsy; conditions: 12 weeks; 75 to 300 mg/day; cited from earlier work; remark: listed apart in the source

## NC(=O)OC[C@H](N)Cc1ccccc1 [Solriamfetol, (R)-2-amino-3-phenylpropyl carbamate]
[1]
  THAT score, LS mean (SE): 34.0 (1.4)
  THAT score, LS mean difference solriamfetol vs placebo: 7.1
[2]
  PVT errors, LS mean (SE): 1.11 (0.42) n/trial and 1.39 (0.42) n/trial and 1.34 (0.32) n/trial
  PVT inverse reaction time, LS mean (SE): 3.41 (0.07) 1/ms and 3.80 (0.07) 1/ms and 3.72 (0.07) 1/ms
  PVT lapses, LS mean (SE): 6.63 (1.61) n/trial and 3.35 (1.61) n/trial and 4.52 (1.61) n/trial
  PVT mean reaction time, LS mean (SE): 582 (148.4) ms and 317 (148.4) ms and 319 (148.4) ms
[3]
  Maintenance of Wakefulness Test, treatment difference from placebo (least squares mean): 2.6 to 10.1 min
[4]; 2 hours post-dose
  Actual task effectiveness, LS mean (SE): 96.07 (1.65)
  Actual task effectiveness, LS mean difference: 10.41
[4]; 6 hours post-dose
  Actual task effectiveness, LS mean (SE): 93.89 (1.65)
  Actual task effectiveness, LS mean difference: 7.60
[4]; pre-dose
  Actual task effectiveness, LS mean (SE): 86.06 (1.65)
  Actual task effectiveness, LS mean difference: −6.16
[5]
  PVT errors, LS mean (SE): 1.24 (0.58) n/trial and 1.84 (0.58) n/trial
  PVT inverse reaction time, LS mean (SE): 3.53 (0.04) 1/ms and 3.64 (0.04) 1/ms and 3.71 (0.04) 1/ms
  PVT lapses, LS mean (SE): 3.82 (0.90) n/trial and 3.02 (0.90) n/trial and 3.98 (0.90) n/trial
Participants with OSA; 2 hours post-dose
  Actual task effectiveness, LS mean (SE): 91.88 (1.12)
  Actual task effectiveness, LS mean difference: −2.35
Participants with OSA; 6 hours post-dose
  Actual task effectiveness, LS mean (SE): 93.72 (1.12)
  Actual task effectiveness, LS mean difference: −1.35
Participants with OSA; pre-dose
  Actual task effectiveness, LS mean (SE): 89.19 (1.12)
  Actual task effectiveness, LS mean difference: −4.45
[6]; after receiving solriamfetol
  subjects with TEAE considered related to study treatment: 35.3%
[6]; in vivo
  serious or fatal TEAEs: no serious nor fatal TEAEs
[6]; received solriamfetol
  subjects with TEAE related or suspected related to study drug, n (%): 12 (35.3%)
[6]; receiving solriamfetol
  subjects experiencing TEAEs, n (%): 17 (50.0%)
[7]
  Epworth Sleepiness Scale, treatment difference from placebo (least squares mean): −2.2 to −4.7 points

From patent US20260199282A1, “METHODS AND COMPOSITIONS FOR IMPROVING DRIVING PERFORMANCE” (priority 2022, published 2026)
